In patent US20230085307A1, “PYRIDAZINONE COMPOUND AND HERBICIDE” (NISSAN CHEMICAL CORPORATION, priority 2019, published 2023):

Key:
rice flat sedge = assay: Test Example 3: herbicidal effect by foliage application, Wagner pot (Table 18, symbol E); type: in vivo, rice flat sedge (Cyperus iria); settings: 320 g/ha
Method in brief: (§1)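 Plants were sown in alluvial soil held under 0.1–0.5 cm standing water and grown 14 days in a greenhouse at 25–30 °C. An emulsifiable formulation, water-diluted to the set dose, was then sprayed onto the foliage, and effects were scored three weeks later using previously defined criteria.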

oval-leafed pondweed [1] = assay: Test Example 2: herbicidal activity, application during weed generation under submerged conditions (Table 17, symbol C); type: in vivo, oval-leafed pondweed (Monochoria vaginalis); settings: AAH 320 g/ha; application during weed generation, submerged conditions
Experimental: (§2) [Test Example 2] Herbicidal Activity Test by Application during Weed Generation under Submerged Conditions After alluvial soil was placed into 1/10000 are of Wagner pot, water was poured and mixed to form a submerged condition having a water depth of 4 cm. Seeds of late watergrass, Japanese bulrush, and oval-leafed pondweed were sowed in a mixed manner in the aforementioned pot, and the pot was placed in a greenhouse at 25° C. to 30° C. for growth of the plants. When late watergrass, Japanese bulrush, and oval-leafed pondweed were grown to one leaf stage to two leaf stage, the emulsion agent of the compound of the present invention prepared according to Formulation Example 2 was diluted with water so as to achieve a predetermined herbicide amount, and the diluted emulsion agent was applied to the surface of the water. Three weeks after the herbicide application, the effect of the herbicide on each plant was evaluated according to the criteria of Test Example 1.

Chinese sprangletop = assay: Test Example 3: herbicidal effect by foliage application, Wagner pot (Table 18, symbol D); type: in vivo, chinese sprangletop (Leptochloa chinensis); settings: 320 g/ha
Method in brief: as §1

barnyard grass [2] = assay: Test Example 3: herbicidal effect by foliage application, Wagner pot (Table 18, symbol H); type: in vivo, barnyard grass (Echinochloa crus-galli); settings: 320 g/ha
Method in brief: as §1

Japanese bulrush [3] = assay: Test Example 2: herbicidal activity, application during weed generation under submerged conditions (Table 17, symbol B); type: in vivo, Japanese bulrush (Schoenoplectus juncoides); settings: AAH 320 g/ha; application during weed generation, submerged conditions
Experimental: as §2

late watergrass [4] = assay: Test Example 2: herbicidal activity, application during weed generation under submerged conditions (Table 17, symbol A); type: in vivo, late watergrass (Echinochloa oryzicola); settings: AAH 320 g/ha; application during weed generation, submerged conditions
Experimental: as §2

oval-leafed pondweed [5] = assay: Test Example 1: herbicidal activity, application before weed generation under submerged conditions (Table 16, symbol C); type: in vivo, oval-leafed pondweed (Monochoria vaginalis); settings: 320 g/ha applied herbicide
Method in brief: (§3)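 Emulsion formulation, water-diluted to set dose, was put onto the flooded surface (4 cm depth, alluvial soil) the same day weeds were sown and 2.5-leaf rice transplanted. After 3 weeks at 25-30 °C under glass, each species was rated 0 (≤5% kill) to 5 (≥90% kill).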

lambsquarters [6] = assay: Test Example 4: herbicidal effect by soil treatment (Table 19, symbol O); type: in vivo, lambsquarters (Chenopodium album); settings: AAH 320 g/ha
Method in brief: (§4)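 Scoring uses the grading scale of an earlier test, three weeks post-application. Treatment consists of spraying a diluted emulsion formulation across the surface of sterilized diluvial soil in which seeds are buried near 1.5 cm deep; boxes are kept in a greenhouse between 25° C. and 30° C.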

southern crabgrass [7] = assay: Test Example 4: herbicidal effect by soil treatment (Table 19, symbol F); type: in vivo, southern crabgrass (Digitaria ciliaris); settings: AAH 320 g/ha
Method in brief: as §4

velvetleaf [8] = assay: Test Example 5: herbicidal effect by foliage application, plastic box (Table 20, symbol M); type: in vivo, velvetleaf (Abutilon theophrasti); settings: foliage application, 320 g/ha, 3 weeks after application
Method in brief: (§5)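 Post-emergence foliar test in sterilized diluvial soil. Compound applied as water-diluted emulsion at a predetermined rate to 14-day-old plants; evaluation at three weeks.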

velvetleaf [9] = assay: Test Example 4: herbicidal effect by soil treatment (Table 19, symbol M); type: in vivo, velvetleaf (Abutilon theophrasti); settings: AAH 320 g/ha
Method in brief: as §4

lambsquarters [10] = assay: Test Example 5: herbicidal effect by foliage application, plastic box (Table 20, symbol O); type: in vivo, lambsquarters (Chenopodium album); settings: foliage application, 320 g/ha, 3 weeks after application
Method in brief: as §5

green foxtail [11] = assay: Test Example 4: herbicidal effect by soil treatment (Table 19, symbol G); type: in vivo, green foxtail (Setaria viridis); settings: AAH 320 g/ha
Method in brief: as §4

Italian ryegrass [12] = assay: Test Example 5: herbicidal effect by foliage application, plastic box (Table 20, symbol K); type: in vivo, Italian ryegrass (Lolium multiflorum); settings: foliage application, 320 g/ha, 3 weeks after application
Method in brief: as §5

persian speedwell [13] = assay: Test Example 5: herbicidal effect by foliage application, plastic box (Table 20, symbol R); type: in vivo, Persian speedwell (Veronica persica); settings: foliage application, 320 g/ha, 3 weeks after application
Method in brief: as §5

barnyard grass [14] = assay: Test Example 5: herbicidal effect by foliage application, plastic box (Table 20, symbol H); type: in vivo, barnyard grass (Echinochloa crus-galli); settings: foliage application, 320 g/ha, 3 weeks after application
Method in brief: as §5

blackgrass [15] = assay: Test Example 4: herbicidal effect by soil treatment (Table 19, symbol J); type: in vivo, blackgrass (Alopecurus myosuroides); settings: AAH 320 g/ha
Method in brief: as §4

wild oat [16] = assay: Test Example 4: herbicidal effect by soil treatment (Table 19, symbol I); type: in vivo, wild oat (Avena fatua); settings: AAH 320 g/ha
Method in brief: as §4

redroot pigweed = assay: Test Example 4: herbicidal effect by soil treatment (Table 19, symbol N); type: in vivo, redroot pigweed (Amaranthus retroflexus); settings: AAH 320 g/ha
Method in brief: as §4

Japanese bulrush [17] = assay: Test Example 1: herbicidal activity, application before weed generation under submerged conditions (Table 16, symbol B); type: in vivo, Japanese bulrush (Schoenoplectus juncoides); settings: 320 g/ha applied herbicide
Method in brief: as §3

wild oat [18] = assay: Test Example 5: herbicidal effect by foliage application, plastic box (Table 20, symbol I); type: in vivo, wild oat (Avena fatua); settings: foliage application, 320 g/ha, 3 weeks after application
Method in brief: as §5

blackgrass [19] = assay: Test Example 5: herbicidal effect by foliage application, plastic box (Table 20, symbol J); type: in vivo, blackgrass (Alopecurus myosuroides); settings: foliage application, 320 g/ha, 3 weeks after application
Method in brief: as §5

persian speedwell [20] = assay: Test Example 4: herbicidal effect by soil treatment (Table 19, symbol R); type: in vivo, Persian speedwell (Veronica persica); settings: AAH 320 g/ha
Method in brief: as §4

green foxtail [21] = assay: Test Example 5: herbicidal effect by foliage application, plastic box (Table 20, symbol G); type: in vivo, green foxtail (Setaria viridis); settings: foliage application, 320 g/ha, 3 weeks after application
Method in brief: as §5

southern crabgrass [22] = assay: Test Example 5: herbicidal effect by foliage application, plastic box (Table 20, symbol F); type: in vivo, southern crabgrass (Digitaria ciliaris); settings: foliage application, 320 g/ha, 3 weeks after application
Method in brief: as §5

barnyard grass [23] = assay: Test Example 4: herbicidal effect by soil treatment (Table 19, symbol H); type: in vivo, barnyard grass (Echinochloa crus-galli); settings: AAH 320 g/ha
Method in brief: as §4

late watergrass [24] = assay: Test Example 1: herbicidal activity, application before weed generation under submerged conditions (Table 16, symbol A); type: in vivo, late watergrass (Echinochloa oryzicola); settings: 320 g/ha applied herbicide
Method in brief: as §3

chickweed = assay: Test Example 4: herbicidal effect by soil treatment (Table 19, symbol P); type: in vivo, common chickweed (Stellaria media); settings: AAH 320 g/ha
Method in brief: as §4

Italian ryegrass [25] = assay: Test Example 4: herbicidal effect by soil treatment (Table 19, symbol K); type: in vivo, Italian ryegrass (Lolium multiflorum); settings: AAH 320 g/ha
Method in brief: as §4

With COC(=O)COc1ccc(-c2sc3ccccc3c2-c2c(O)c(C)nn(C)c2=O)cc1 [1-232] the “herbicidal effect on E (rice flat sedge), rating 0-5” value (rice flat sedge) was 3 (Herbicidal rate of 40% or more and less than 70%), the “herbicidal effect rating, C: oval-leafed pondweed” value (oval-leafed pondweed [1]) was 0 (Herbicidal rate of 5% or less (almost no effect)) and the “herbicidal effect on D (Chinese sprangletop), rating 0-5” value (Chinese sprangletop) was 3 (Herbicidal rate of 40% or more and less than 70%). For the same compound, the “herbicidal effect on H (barnyard grass), rating 0-5” value (barnyard grass [2]) was 3 (Herbicidal rate of 40% or more and less than 70%), the “herbicidal effect rating, B: Japanese bulrush” value (Japanese bulrush [3]) was 0 (Herbicidal rate of 5% or less (almost no effect)) and the “herbicidal effect rating, A: late watergrass” value (late watergrass [4]) was 3 (Herbicidal rate of 40% or more and less than 70%).

For C=CCOCc1ccc(-c2sc3ccccc3c2-c2c(O)c(C)nn(C)c2=O)cc1 [1-241], the “Herbicidal effect on C: oval-leafed pondweed (grade 0-5)” value (oval-leafed pondweed [5]) was 2 (Herbicidal rate of 20% or more and less than 40%), the “O: lambsquarters, herbicidal effect rating” value (lambsquarters [6]) was 4 (Herbicidal rate of 70% or more and less than 90%) and the “herbicidal effect on E (rice flat sedge), rating 0-5” value (rice flat sedge) was 4 (Herbicidal rate of 70% or more and less than 90%). For the same compound, the “F: southern crabgrass, herbicidal effect rating” value (southern crabgrass [7]) was 1 (Herbicidal rate of 5% or more and less than 20%), the “effect on velvetleaf (M)” value (velvetleaf [8]) was 5 (Herbicidal rate of 90% or more (almost completely withered)) and the “M: velvetleaf, herbicidal effect rating” value (velvetleaf [9]) was 0 (Herbicidal rate of 5% or less (almost no effect)). For the same compound, the “effect on lambsquarters (O)” value (lambsquarters [10]) was 4 (Herbicidal rate of 70% or more and less than 90%), the “G: green foxtail, herbicidal effect rating” value (green foxtail [11]) was 3 (Herbicidal rate of 40% or more and less than 70%) and the “effect on Italian ryegrass (K)” value (Italian ryegrass [12]) was 5 (Herbicidal rate of 90% or more (almost completely withered)). For the same compound, the “herbicidal effect on D (Chinese sprangletop), rating 0-5” value (Chinese sprangletop) was 3 (Herbicidal rate of 40% or more and less than 70%), the “effect on persian speedwell (R)” value (persian speedwell [13]) was 5 (Herbicidal rate of 90% or more (almost completely withered)) and the “effect on barnyard grass (H)” value (barnyard grass [14]) was 4 (Herbicidal rate of 70% or more and less than 90%). The “J: blackgrass, herbicidal effect rating” value (blackgrass [15]) was 2 (Herbicidal rate of 20% or more and less than 40%), the “I: wild oat, herbicidal effect rating” value (wild oat [16]) was 0 (Herbicidal rate of 5% or less (almost no effect)) and the “N: redroot pigweed, herbicidal effect rating” value (redroot pigweed) was 5 (Herbicidal rate of 90% or more (almost completely withered)). For the same compound, the “Herbicidal effect on B: Japanese bulrush (grade 0-5)” value (Japanese bulrush [17]) was 3 (Herbicidal rate of 40% or more and less than 70%), the “effect on wild oat (I)” value (wild oat [18]) was 0 (Herbicidal rate of 5% or less (almost no effect)) and the “effect on blackgrass (J)” value (blackgrass [19]) was 3 (Herbicidal rate of 40% or more and less than 70%). For the same compound, the “herbicidal effect on H (barnyard grass), rating 0-5” value (barnyard grass [2]) was 5 (Herbicidal rate of 90% or more (almost completely withered)), the “R: persian speedwell, herbicidal effect rating” value (persian speedwell [20]) was 5 (Herbicidal rate of 90% or more (almost completely withered)) and the “effect on green foxtail (G)” value (green foxtail [21]) was 5 (Herbicidal rate of 90% or more (almost completely withered)). For the same compound, the “effect on southern crabgrass (F)” value (southern crabgrass [22]) was 2 (Herbicidal rate of 20% or more and less than 40%), the “H: barnyard grass, herbicidal effect rating” value (barnyard grass [23]) was 3 (Herbicidal rate of 40% or more and less than 70%) and the “Herbicidal effect on A: late watergrass (grade 0-5)” value (late watergrass [24]) was 0 (Herbicidal rate of 5% or less (almost no effect)). For the same compound, the “P: chickweed, herbicidal effect rating” value (chickweed) was 3 (Herbicidal rate of 40% or more and less than 70%), the “herbicidal effect rating, B: Japanese bulrush” value (Japanese bulrush [3]) was 3 (Herbicidal rate of 40% or more and less than 70%) and the “herbicidal effect rating, A: late watergrass” value (late watergrass [4]) was 3 (Herbicidal rate of 40% or more and less than 70%). The “K: Italian ryegrass, herbicidal effect rating” value (Italian ryegrass [25]) was 3 (Herbicidal rate of 40% or more and less than 70%).
